{"source": "patent US20180243387A1", "about": "“TECHNOLOGY FOR C[…] CELLS” (RIKEN, priority 2017, published 2018)", "assay_type_in_all_cases": "cell-based, mice", "key": {"naïve CD4SP T cells [1]": {"system": "naïve CD4SP T cells", "experiment": "Cell proliferation of naïve CD4SP T cells under anti-CD3/anti-CD28 stimulation (OD 450 nm)", "settings": "for effect of inhibiting cellular proliferation by cGAMP: FIG. 7A", "description": "Wild type mice and STING-deficient mice were used. As acquired immune lymphocytes, T cells (in particular naïve CD4SP T cells) were used. Naïve CD4SP T cells were obtained as a CD4^+ CD25^− CD62L^+ fraction from murine spleen by sorting using FACSAria. As a STING ligand, cyclic [G(2′,5′)pA(3′,5′)p] (hereinafter, simply referred to as “cGAMP”) was used. cGAMP (manufactured by Invitrogen, Cat. No.: tlrl-nacga23-1) was used at a working concentration of 3 μg/mL, 10 μg/mL, or 30 μg/mL. The obtained T cells were stimulated with an anti-CD3 antibody (10 μg/mL) and an anti-CD28 antibody (10 μg/mL) in the presence or absence of cGAMP. […] The cells were treated for 48 hours and then the cell proliferation was measured by the optical density (OD 450 nm). The result was as illustrated in FIG. 1.\nMoreover, the involvement of TBK1 in the function to inhibit cell proliferation by cGAMP was examined using TBK1 heterozygous mice and TBK1 knockout mice. The result was as illustrated in FIG. 6B.\n(§1) Next, involvement of IRF3 and IRF7 in the effect of inhibiting cellular proliferation and the effect of increasing production of INF-α through STING were examined. Specifically, T cells from IRF3-deficient mice or IRF3/IRF7 double deficient mice (see Immunity, Vol. 13, 539-548, 2000; Nature, Vol. 434, 772-777, 2005) were stimulated by anti-CD3/CD28 antibodies in the presence or absence of cGAMP. 48 hours later, the proliferation of the cells and the production of INF-α were examined as described above. The results were as illustrated in FIGS. 7A and 7B."}, "naïve CD4SP T cells [2]": {"system": "naïve CD4SP T cells", "experiment": "Cell survival rate of naïve CD4SP T cells (apoptosis inducing effect)", "settings": "cGAMP 10 or 30 μg/mL, 15 hours, FIG. 2"}, "[3]": {"system": "lipid synthesis genes that are induced by the activation of mTORC1", "experiment": "Expression levels of lipid synthesis genes by quantitative PCR", "settings": "FIG. 5", "description": "Moreover, the expression levels of lipid synthesis genes that are induced by the activation of mTORC1 were analyzed by quantitative PCR. The result was as illustrated in FIG. 5."}, "[4]": {"system": "mTOR Complex 1 (mTORC1) signaling", "experiment": "Phosphorylated level of signal molecules by western blotting", "settings": "anti-CD3/CD28 antibodies 24 hours, FIG. 4", "description": "As a signal molecule that is involved in the expression of cell proliferation-related genes, the activation level of mTOR Complex 1 (mTORC1) signaling was analyzed. Specifically, as described in (1) above, naïve CD4SP T cells were stimulated with anti-CD3/CD28 antibodies for 24 hours in the presence or absence of cGAMP. Subsequently, the phosphorylated level of indicated factors was evaluated with antibodies specific to the phosphorylated form by western blotting. As primary antibodies, the antibodies set forth in the following were used. The following primary antibodies were manufactured by Cell Signaling Technology, Inc. and the catalog numbers are indicated in the parentheses.\nAnti-phospho-IRF3 (#4947)\nAnti-phospho-STAT5 (#9351)\nAnti-phospho-Jak3 (#5031)\nAnti-phospho-STING (#13647)\nAs a second antibody, Goat anti-Rabbit IgG (H+L) Secondary Antibody, HRP from Thermo Fisher Scientific Inc. was used. Phosphorylated proteins were detected according to a manufacturer manual. The result was as illustrated in FIG. 4."}, "type I interferon INF-α": {"system": "type I interferon INF-α", "experiment": "Production of type I interferon INF-α in naïve CD4SP T cells by ELISA", "settings": "for effect of increasing production of INF-α by cGAMP: 48 hours, FIG. 7B", "description": "1×10^5 naïve CD4SP T cells were stimulated for 48 hours on a plate on which an anti-CD3 antibody (10 μg/mL) and an anti-CD28 antibody (10 μg/mL) were immobilized. The cell supernatant was collected and the production of the type I interferon INF-α was examined by ELISA using an anti-INF-α antibody. In innate immune cells, type I interferons are produced by the activation of TBK1 and its downstream IRF3 and IRF7. Therefore, T cells from TBK1 heteromice (Tbk1+/−) and TBK1-deficient mice (Tbk1−/−) were used (see, J Exp Med, Vol. 199, 1641-1650, 2004). The result was as illustrated in FIG. 6A.\nas §1"}, "[5]": {"system": "cell cycle-related factors in naïve CD4SP T cells", "experiment": "Gene expression of cell cycle-related factors by quantitative PCR", "settings": "anti-CD3/CD28 antibodies 24 hours, FIG. 3", "description": "As described in (1) above, naïve CD4SP T cells were stimulated with anti-CD3/CD28 antibodies for 24 hours in the presence or absence of cGAMP. Subsequently, the gene expression of cell cycle-related factors was examined by quantitative PCR according to a conventional method. The result was as illustrated in FIG. 3."}}}
{"smiles": "COc1cc([C@@H]2c3cc4c(cc3[C@@H](O[C@@H]3O[C@@H]5CO[C@@H](C)O[C@H]5[C@H](O)[C@H]3O)[C@H]3COC(=O)[C@H]23)OCO4)cc(OC)c1O", "note": "[etoposide]", "values": [{"measurement": "number of cells (cell proliferation, OD 450 nm)", "setting": "naïve CD4SP T cells [1]; etoposide 10 μM, STING+/+ and STING−/−, 48 hours, FIG. 1", "value": "decreased independent of the STING genotype"}]}
{"smiles": "Nc1nc2c(ncn2[C@@H]2O[C@@H]3COP(=O)(O)O[C@H]4[C@@H](O)[C@H](n5cnc6c(N)ncnc65)O[C@@H]4COP(=O)(O)O[C@@H]2[C@@H]3O)c(=O)[nH]1", "note": "[cGAMP, cyclic [G(2′,5′)pA(3′,5′)p]]", "values": [{"measurement": "apoptosis-inducing effect", "setting": "naïve CD4SP T cells [2]; etoposide 10 μM", "value": "any prominent apoptosis-inducing effect was not found"}, {"measurement": "cell survival rate", "setting": "naïve CD4SP T cells [2]", "value": "decreased to some extent in a concentration-dependent manner"}, {"measurement": "expression levels of lipid synthesis-related genes", "setting": "[3]", "value": "decreased"}, {"measurement": "effect of inhibiting cellular proliferation by cGAMP", "setting": "naïve CD4SP T cells [1]; IRF3/IRF7 double deficient mice, 48 hours", "value": "largely decreased"}, {"measurement": "effect of inhibiting cellular proliferation by cGAMP", "setting": "naïve CD4SP T cells [1]; IRF3 deficient mouse, 48 hours", "value": "partially decreased"}, {"measurement": "effect on the number of naïve CD4SP T cells", "setting": "naïve CD4SP T cells [1]; STING-deficient mice (STING−/−), anti-CD3/anti-CD28 stimulation, 48 hours, FIG. 1", "value": "limited"}, {"measurement": "effect of Tbk1 knockout on inhibition of cell proliferation by cGAMP", "setting": "naïve CD4SP T cells [1]; TBK1 knockout versus TBK1 heterozygous mice, FIG. 6B", "value": "almost no effect"}, {"measurement": "degree of effect on the number of cells compared with etoposide", "setting": "naïve CD4SP T cells [1]; cGAMP versus 10 μM etoposide, 48 hours, FIG. 1", "value": "acted in a degree similar to etoposide"}, {"measurement": "number of naïve CD4SP T cells (cell proliferation, OD 450 nm)", "setting": "naïve CD4SP T cells [1]; wild type mice (STING+/+), cGAMP 3, 10 or 30 μg/mL, anti-CD3/anti-CD28 stimulation, 48 hours, FIG. 1", "value": "decreased in a concentration-dependent manner"}, {"measurement": "level of phosphorylated 4E-BP1", "setting": "[4]", "value": "decreased"}, {"measurement": "level of phosphorylated S6K", "setting": "[4]", "value": "decreased"}, {"measurement": "effect of increasing production of INF-α by cGAMP", "setting": "type I interferon INF-α; IRF3/IRF7 double deficient mice", "value": "almost completely disappeared"}, {"measurement": "effect of increasing production of INF-α by cGAMP", "setting": "type I interferon INF-α; IRF3 deficient mice", "value": "almost completely disappeared"}, {"measurement": "increase in production of INF-α by cGAMP", "setting": "type I interferon INF-α; TBK1-deficient mice (Tbk1−/−) versus Tbk1+/−, FIG. 6A", "value": "decreased by TBK1 knockout"}, {"measurement": "INF-α production in T cells", "setting": "type I interferon INF-α; anti-CD3/anti-CD28 stimulation 48 hours, ELISA of supernatant, FIG. 6A", "value": "prominent increase"}, {"measurement": "expression of Cdk1", "setting": "[5]", "value": "inhibited"}, {"measurement": "expression of Cdk4", "setting": "[5]", "value": "inhibited"}, {"measurement": "expression of cyclin A2", "setting": "[5]", "value": "inhibited"}, {"measurement": "expression of cyclin B1", "setting": "[5]", "value": "inhibited"}, {"measurement": "expression of cyclin D3", "setting": "[5]", "value": "inhibited"}, {"measurement": "expression of p21", "setting": "[5]", "value": "increased"}]}
